Reference: ChEMBL document CHEMBL1201862, “PubChem BioAssay data set” (2004)
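Dose response: 5 concentrations. Exposure: 48 h. Format: 96-well plates. Endpoint: linear interpolation; highest concentration if not reached. GI50 marks 50% less growth.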 Active and inactive are the calls of the source. Rule as the data show it: active = GI50 up to about 1.1 µM and inactive = higher.

Legend:
Assay in all cases: inhibition of tumour cell growth, NCI panel, 48 h
MDA-N = system: MDA-N
HL-60 = system: HL-60
MDA-MB-435 = system: MDA-MB-435
SF-295 = system: SF-295
SNB-75 = system: SNB-75
COLO 205 = system: COLO 205
SK-MEL-2 = system: SK-MEL-2
SF-539 = system: SF-539
SNB-19 = system: SNB-19
UACC-62 = system: UACC-62
M14 = system: M14
U-251 = system: U-251
NCI/ADR-RES = system: NCI/ADR-RES
PC-3 = system: PC-3
786-0 = system: 786-0
A549 = system: A549
BT-549 = system: BT-549
UO-31 = system: UO-31
SK-OV-3 = system: SK-OV-3
OVCAR-5 = system: OVCAR-5

Measured: GI50

O=C(O)CC1(C(=O)O)CCCCC1
inactive: MDA-N > 100 µM | HL-60 > 100 µM | MDA-MB-435 > 100 µM | SF-295 > 100 µM | SNB-75 > 100 µM | COLO 205 > 100 µM | SK-MEL-2 > 100 µM | SF-539 > 100 µM | SNB-19 > 100 µM | UACC-62 > 100 µM | M14 > 100 µM | U-251 > 100 µM | NCI/ADR-RES > 100 µM | PC-3 > 100 µM | 786-0 > 100 µM | A549 > 100 µM | BT-549 > 100 µM | UO-31 > 100 µM | SK-OV-3 > 100 µM | OVCAR-5 > 100 µM

N#Cc1c(O)c(/C=N/c2ccc(Cl)cc2)c(=O)n2c1[nH]c1ccccc12
inactive: MDA-N > 100 µM | HL-60 > 100 µM | MDA-MB-435 > 100 µM | SF-295 > 100 µM | SNB-75 > 100 µM | COLO 205 > 100 µM | SK-MEL-2 > 100 µM | SF-539 > 100 µM | SNB-19 > 100 µM | UACC-62 > 100 µM | M14 > 100 µM | U-251 > 100 µM | NCI/ADR-RES > 100 µM | PC-3 > 100 µM | 786-0 > 100 µM | A549 > 100 µM | BT-549 > 100 µM | UO-31 > 100 µM | SK-OV-3 > 100 µM | OVCAR-5 > 100 µM

O=C(NC(N1CCN(c2cc3c(cc2F)c(=O)c(C(=O)O)cn3C2CC2)CC1)(C(F)(F)F)C(F)(F)F)c1ccccc1
inactive: MDA-N 39.6 µM | HL-60 25.4 µM | MDA-MB-435 34.1 µM | SF-295 40.6 µM | SNB-75 33.6 µM | COLO 205 19.1 µM | SK-MEL-2 34.9 µM | SF-539 22 µM | SNB-19 33.9 µM | UACC-62 33.3 µM | M14 47.4 µM | U-251 37.3 µM | NCI/ADR-RES 46 µM | PC-3 45.1 µM | 786-0 45.2 µM | A549 39.7 µM | BT-549 51.2 µM | UO-31 30.5 µM | SK-OV-3 34.1 µM | OVCAR-5 26.7 µM

CC1=C[C@@H]2Cc3nc4cc(Cl)ccc4c(N)c3[C@H](C1)C2
inactive: MDA-N 15.5 µM | HL-60 15.3 µM | MDA-MB-435 10.9 µM | SF-295 6.17 µM | SNB-75 4.97 µM | COLO 205 1.48 µM | SK-MEL-2 14.7 µM | SF-539 12.4 µM | SNB-19 11.8 µM | UACC-62 14.6 µM | M14 4.57 µM | U-251 13.4 µM | NCI/ADR-RES 11.7 µM | PC-3 12.5 µM | 786-0 6.03 µM | A549 12.6 µM | BT-549 16.2 µM | UO-31 5.06 µM | SK-OV-3 12 µM | OVCAR-5 4.28 µM

COC1CC(OC2C(C)OC(OC3C(C)OC(OC4C(O)CC(O[C@H]5CC[C@@]6(C)C(=CC[C@]7(O)[C@@H]6C[C@@H](OC(=O)/C=C/c6ccccc6)[C@@]6(C)[C@]7(O)CC[C@@]6(O)C(C)=O)C5)OC4C)CC3OC)CC2OC)OC(C)C1O (stereo not given in full)
inactive: MDA-N > 6.25 µM | HL-60 > 6.25 µM | MDA-MB-435 > 6.25 µM | SF-295 > 6.25 µM | SNB-75 > 6.25 µM | COLO 205 > 6.25 µM | SK-MEL-2 > 6.25 µM | SF-539 > 6.25 µM | SNB-19 > 6.25 µM | UACC-62 > 6.25 µM | M14 > 6.25 µM | U-251 > 6.25 µM | NCI/ADR-RES > 6.25 µM | PC-3 > 6.25 µM | 786-0 > 6.25 µM | A549 > 6.25 µM | BT-549 > 6.25 µM | UO-31 4.52 µM | SK-OV-3 > 6.25 µM | OVCAR-5 > 6.25 µM
